# Experiments:
# Type in all cases: in vivo
# Settings in all cases: for Germinative energy: day 3; for Germinative capacity / Number of lateral roots / Sprout height / Taproot length: day 7
# [1] = tested on: tomato seeds (“Volgogradets” variety); experiment: Laboratory tests of DMOA and DEOA for tomato seeds
# Description: (§1) After that DMOA and DEOA were dissolved in dimethyl sulfoxide to give solutions of 10 g/L concentration, then water was added to give aqueous solutions of DMOA with concentrations of 5.5·10^−5 M, 5.5·10^−6 M, 5.5·10^−7 M, 5.5·10^−8 M, 5.5·10^−9 M and DEOA with concentrations of 4.8·10^−5 M, 4.8·10^−6 M, 4.8·10^−7 M, 4.8·10^−8 M, 4.8·10^−9 M.
# (§2) The obtained aqueous solutions of DMOA and DEOA were tested in the Scientific Center of Soil-Ecological Reasearch of the Federal State-Funded Educational Institution of Higher Education “Russian State Agrarian University—Moscow Agricultural Academy named after K. A. Timiryazev” (Moscow, 2015) according to the method described by T. A. Sergeeva (Method of laboratory testing of herbicides, Plant protection, 1963, No. 2, pp. 42-43). The primary laboratory screening of DMOA and DEOA was carried out on the seeds of five different crops: sunflower of “Voronezh 638” variety, soybean of “Vilana” variety, alfalfa of “Vega” variety, cucumber of “Nezhinsky” variety and tomato of “Volgogradets” variety.
# (§3) Water was used as a reference.
# (§4) A single experiment was carried out in a Petri dish. A circle of filter paper was laid at the bottom of the dish and treated with 5 ml of the work solution selected for the experiment. After that 25 seeds were uniformly laid on the surface of the treated filter paper. The Petri dish was kept at a temperature of 21-23° C. with illumination by fluorescent lamps for 7 days. The fourfold replication of the experiment within a single variant was applied.
# (§5) The experiment identified the number and percentage of normally germinated seeds on day 3 (germinative energy) and on day 7 (germinative capacity) after the beginning of the experiment. On day 7 the main biometric parameters were also measured: sprout height (mm), taproot length (mm) and number of lateral roots (pcs).
# (§6) The results were processed with the method of variance analysis with the help of STRAZ software in order to get the LSD0.05 (least significant difference between the test results on 5% significance level).
# [2] = tested on: sunflower seeds (“Voronezh 638” variety); experiment: Laboratory tests of DMOA and DEOA for sunflower seeds
# Description: as §1, §2, §3, §4, §5, §6
# [3] = tested on: soybean seeds (“Vilana” variety); experiment: Laboratory tests of DMOA and DEOA for soybean seeds
# Description: as §1, §2, §3, §4, §5, §6
# [4] = tested on: cucumber seeds (“Nezhinsky” variety); experiment: Laboratory tests of DMOA and DEOA for cucumber seeds
# Description: as §1, §2, §3, §4, §5, §6
smiles,measurement,setting,value
"CCOC(=O)C=C([O-])C(=O)OCC.[Na+] [DEOA, sodium salt of diethyl ester of oxaloacetic acid]",Germinative energy,[1]; 4.8 · 10^−5 M,93%
same,Germinative capacity,[1]; 4.8 · 10^−5 M,95%
same,Number of lateral roots,[1]; 4.8 · 10^−5 M,0.5 ↑ pcs.
same,Sprout height,[1]; 4.8 · 10^−5 M,25.3 mm
same,Taproot length,[1]; 4.8 · 10^−5 M,80.1 mm
same,Germinative energy,[1]; 4.8 · 10^−6 M,75%
same,Germinative capacity,[1]; 4.8 · 10^−6 M,80%
same,Number of lateral roots,[1]; 4.8 · 10^−6 M,0.2 pcs.
same,Sprout height,[1]; 4.8 · 10^−6 M,25.7 mm
same,Taproot length,[1]; 4.8 · 10^−6 M,77.7 mm
same,Germinative energy,[1]; 4.8 · 10^−7 M,88%
same,Germinative capacity,[1]; 4.8 · 10^−7 M,91%
same,Number of lateral roots,[1]; 4.8 · 10^−7 M,0.4 pcs.
same,Sprout height,[1]; 4.8 · 10^−7 M,26.3 mm
same,Taproot length,[1]; 4.8 · 10^−7 M,84.6 ↑ mm
same,Germinative energy,[1]; 4.8 · 10^−8 M,74%
same,Germinative capacity,[1]; 4.8 · 10^−8 M,76%
same,Number of lateral roots,[1]; 4.8 · 10^−8 M,0.2 pcs.
same,Sprout height,[1]; 4.8 · 10^−8 M,22.7 mm
same,Taproot length,[1]; 4.8 · 10^−8 M,77.9 mm
same,Germinative energy,[1]; 4.8 · 10^−9 M,82%
same,Germinative capacity,[1]; 4.8 · 10^−9 M,89%
same,Number of lateral roots,[1]; 4.8 · 10^−9 M,0.4 pcs.
same,Sprout height,[1]; 4.8 · 10^−9 M,21.3 ↓ mm
same,Taproot length,[1]; 4.8 · 10^−9 M,77.9 mm
same,Germinative energy,[2]; 4.8 · 10^−5 M,87%
same,Germinative capacity,[2]; 4.8 · 10^−5 M,93%
same,Number of lateral roots,[2]; 4.8 · 10^−5 M,9.6 pcs.
same,Sprout height,[2]; 4.8 · 10^−5 M,40.1 ↑↑↑↑↑ mm
same,Taproot length,[2]; 4.8 · 10^−5 M,38.4 mm
same,Germinative energy,[2]; 4.8 · 10^−6 M,80%
same,Germinative capacity,[2]; 4.8 · 10^−6 M,90%
same,Number of lateral roots,[2]; 4.8 · 10^−6 M,8.9 pcs.
same,Sprout height,[2]; 4.8 · 10^−6 M,29.7 ↑↑ mm
same,Taproot length,[2]; 4.8 · 10^−6 M,44.0 mm
same,Germinative energy,[2]; 4.8 · 10^−7 M,93 ↑ %
same,Germinative capacity,[2]; 4.8 · 10^−7 M,93%
same,Number of lateral roots,[2]; 4.8 · 10^−7 M,6.9 pcs.
same,Sprout height,[2]; 4.8 · 10^−7 M,29.2 ↑↑ mm
same,Taproot length,[2]; 4.8 · 10^−7 M,37.0 mm
same,Germinative energy,[2]; 4.8 · 10^−8 M,97 ↑ %
same,Germinative capacity,[2]; 4.8 · 10^−8 M,99 ↑ %
same,Number of lateral roots,[2]; 4.8 · 10^−8 M,11.2 ↑ pcs.
same,Sprout height,[2]; 4.8 · 10^−8 M,27.7 ↑ mm
same,Taproot length,[2]; 4.8 · 10^−8 M,56.3 ↑↑ mm
same,Germinative energy,[2]; 4.8 · 10^−9 M,81%
same,Germinative capacity,[2]; 4.8 · 10^−9 M,87%
same,Number of lateral roots,[2]; 4.8 · 10^−9 M,9.5 pcs.
same,Sprout height,[2]; 4.8 · 10^−9 M,30.5 ↑↑ mm
same,Taproot length,[2]; 4.8 · 10^−9 M,38.3 mm
same,Germinative energy,[3]; 4.8 · 10^−5 M,87 ↑ %
same,Germinative capacity,[3]; 4.8 · 10^−5 M,93%
same,Number of lateral roots,[3]; 4.8 · 10^−5 M,0.3 pcs.
same,Sprout height,[3]; 4.8 · 10^−5 M,15.3 mm
same,Taproot length,[3]; 4.8 · 10^−5 M,45.3 ↑ mm
same,Germinative energy,[3]; 4.8 · 10^−6 M,75%
same,Germinative capacity,[3]; 4.8 · 10^−6 M,87%
same,Number of lateral roots,[3]; 4.8 · 10^−6 M,0.6 pcs.
same,Sprout height,[3]; 4.8 · 10^−6 M,19.0 ↑ mm
same,Taproot length,[3]; 4.8 · 10^−6 M,37.7 mm
same,Germinative energy,[3]; 4.8 · 10^−7 M,72%
same,Germinative capacity,[3]; 4.8 · 10^−7 M,90%
same,Number of lateral roots,[3]; 4.8 · 10^−7 M,0.3 pcs.
same,Sprout height,[3]; 4.8 · 10^−7 M,14.7 mm
same,Taproot length,[3]; 4.8 · 10^−7 M,36.2 mm
same,Germinative energy,[3]; 4.8 · 10^−8 M,73%
same,Germinative capacity,[3]; 4.8 · 10^−8 M,93%
same,Number of lateral roots,[3]; 4.8 · 10^−8 M,0.4 pcs.
same,Sprout height,[3]; 4.8 · 10^−8 M,14.3 mm
same,Taproot length,[3]; 4.8 · 10^−8 M,33.6 mm
same,Germinative energy,[3]; 4.8 · 10^−9 M,80%
same,Germinative capacity,[3]; 4.8 · 10^−9 M,99 ↑ %
same,Number of lateral roots,[3]; 4.8 · 10^−9 M,1.2 ↑↑ pcs.
same,Sprout height,[3]; 4.8 · 10^−9 M,17.1 mm
same,Taproot length,[3]; 4.8 · 10^−9 M,46.5 ↑ mm
same,Germinative energy,[4]; 4.8 · 10^−5 M,84%
same,Germinative capacity,[4]; 4.8 · 10^−5 M,88%
same,Number of lateral roots,[4]; 4.8 · 10^−5 M,14.3 pcs.
same,Sprout height,[4]; 4.8 · 10^−5 M,27.8 ↑↑ mm
same,Taproot length,[4]; 4.8 · 10^−5 M,83.7 mm
same,Germinative energy,[4]; 4.8 · 10^−6 M,80%
same,Germinative capacity,[4]; 4.8 · 10^−6 M,85%
same,Number of lateral roots,[4]; 4.8 · 10^−6 M,14.4 pcs.
same,Sprout height,[4]; 4.8 · 10^−6 M,22.2 mm
same,Taproot length,[4]; 4.8 · 10^−6 M,88.3 ↑ mm
same,Germinative energy,[4]; 4.8 · 10^−7 M,84%
same,Germinative capacity,[4]; 4.8 · 10^−7 M,88%
same,Number of lateral roots,[4]; 4.8 · 10^−7 M,15.5 ↑ pcs.
same,Sprout height,[4]; 4.8 · 10^−7 M,22.3 mm
same,Taproot length,[4]; 4.8 · 10^−7 M,89.3 ↑ mm
same,Germinative energy,[4]; 4.8 · 10^−8 M,88%
same,Germinative capacity,[4]; 4.8 · 10^−8 M,95%
same,Number of lateral roots,[4]; 4.8 · 10^−8 M,12.4 pcs.
same,Sprout height,[4]; 4.8 · 10^−8 M,19.3 mm
same,Taproot length,[4]; 4.8 · 10^−8 M,79.8 mm
same,Germinative energy,[4]; 4.8 · 10^−9 M,91%
same,Germinative capacity,[4]; 4.8 · 10^−9 M,93%
same,Number of lateral roots,[4]; 4.8 · 10^−9 M,13.7 pcs.
same,Sprout height,[4]; 4.8 · 10^−9 M,21.6 mm
same,Taproot length,[4]; 4.8 · 10^−9 M,93.8 ↑↑ mm
